Broadly, the IC50 is the point on the concentration scale where inhibition reaches its midpoint.

The structures appear in SMILES notation. Positions of bridges follow the written chain, without caps; N, C: chain ends. Non-standard residues stand in square brackets, D forms with d. Residues, ends and D or L forms follow the SMILES beside them. *: point of attachment. DOTA = O=C(O)CN1CCN(CC(=O)O)CCN(CC(=O)*)CCN(CC(=O)O)CC1; Phe(4-COOH) = N[C@@H](Cc1ccc(C(=O)O)cc1)C(=O)O; Pent4ynoyl = C#CCCC(=O)*; Pra = C#CC[C@H](N)C(=O)O; Abu = CC[C@H](N)C(=O)O

This note sets out measurements from patent publication US9340590B2 (priority 2011, dated 2016).

The target in one assay is hNav1.7 (Homo sapiens, UniProt Q15858). Kind of assay: cell-based. Conditions: Nav1.7 Use IC50.
Sequence of hNav1.7 (Q15858 whole entry, looked up): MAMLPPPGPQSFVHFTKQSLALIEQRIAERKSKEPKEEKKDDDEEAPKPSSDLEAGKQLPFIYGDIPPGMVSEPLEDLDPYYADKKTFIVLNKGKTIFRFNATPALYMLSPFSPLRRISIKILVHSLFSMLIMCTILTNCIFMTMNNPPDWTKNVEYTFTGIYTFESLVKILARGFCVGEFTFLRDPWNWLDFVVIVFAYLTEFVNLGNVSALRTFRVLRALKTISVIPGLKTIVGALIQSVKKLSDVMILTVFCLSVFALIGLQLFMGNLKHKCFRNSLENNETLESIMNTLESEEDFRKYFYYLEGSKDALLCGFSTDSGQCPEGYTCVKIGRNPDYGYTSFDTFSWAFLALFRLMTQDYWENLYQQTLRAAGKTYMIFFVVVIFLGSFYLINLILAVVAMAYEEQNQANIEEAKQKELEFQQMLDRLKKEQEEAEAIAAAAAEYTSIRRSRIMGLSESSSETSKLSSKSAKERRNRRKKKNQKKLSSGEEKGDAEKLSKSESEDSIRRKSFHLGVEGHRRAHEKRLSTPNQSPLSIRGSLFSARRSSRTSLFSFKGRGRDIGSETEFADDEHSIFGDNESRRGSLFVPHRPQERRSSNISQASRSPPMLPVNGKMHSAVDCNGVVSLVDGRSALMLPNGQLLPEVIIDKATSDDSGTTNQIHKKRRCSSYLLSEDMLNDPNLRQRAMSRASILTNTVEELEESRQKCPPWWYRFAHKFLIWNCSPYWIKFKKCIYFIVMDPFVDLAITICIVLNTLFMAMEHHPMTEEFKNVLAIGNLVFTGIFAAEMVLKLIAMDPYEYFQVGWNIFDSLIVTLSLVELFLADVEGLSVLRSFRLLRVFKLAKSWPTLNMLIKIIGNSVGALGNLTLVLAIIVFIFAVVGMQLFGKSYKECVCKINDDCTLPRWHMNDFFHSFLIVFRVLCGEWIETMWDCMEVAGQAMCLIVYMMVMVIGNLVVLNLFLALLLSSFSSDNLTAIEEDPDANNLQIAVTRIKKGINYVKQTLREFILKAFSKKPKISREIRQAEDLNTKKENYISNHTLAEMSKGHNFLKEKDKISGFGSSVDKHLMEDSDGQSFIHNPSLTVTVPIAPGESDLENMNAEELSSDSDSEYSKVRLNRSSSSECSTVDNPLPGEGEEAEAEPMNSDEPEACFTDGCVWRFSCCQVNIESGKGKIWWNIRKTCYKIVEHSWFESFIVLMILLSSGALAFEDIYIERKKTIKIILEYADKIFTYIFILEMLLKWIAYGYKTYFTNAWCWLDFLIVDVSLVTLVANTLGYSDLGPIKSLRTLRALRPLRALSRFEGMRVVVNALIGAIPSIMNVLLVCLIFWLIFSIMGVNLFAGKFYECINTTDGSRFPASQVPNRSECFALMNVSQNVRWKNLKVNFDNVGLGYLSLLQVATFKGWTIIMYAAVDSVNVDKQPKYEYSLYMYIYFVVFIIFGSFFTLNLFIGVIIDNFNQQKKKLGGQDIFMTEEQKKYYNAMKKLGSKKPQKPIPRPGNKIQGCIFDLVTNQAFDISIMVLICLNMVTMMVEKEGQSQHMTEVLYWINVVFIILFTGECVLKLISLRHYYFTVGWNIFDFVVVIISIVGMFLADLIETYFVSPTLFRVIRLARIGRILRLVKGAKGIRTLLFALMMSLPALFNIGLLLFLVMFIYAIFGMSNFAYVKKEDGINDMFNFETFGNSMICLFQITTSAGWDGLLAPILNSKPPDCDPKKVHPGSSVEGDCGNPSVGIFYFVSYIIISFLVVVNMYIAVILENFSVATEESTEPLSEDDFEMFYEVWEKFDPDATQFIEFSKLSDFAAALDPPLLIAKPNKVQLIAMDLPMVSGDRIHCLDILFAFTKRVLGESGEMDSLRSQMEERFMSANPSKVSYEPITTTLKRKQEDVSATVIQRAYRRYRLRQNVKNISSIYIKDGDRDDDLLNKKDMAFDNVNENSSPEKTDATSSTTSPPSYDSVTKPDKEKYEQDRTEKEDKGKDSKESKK
Another assay deals with hNav1.5 (Homo sapiens, UniProt Q14524). Kind of assay: cell-based.
Sequence of hNav1.5 (Q14524 whole entry, looked up): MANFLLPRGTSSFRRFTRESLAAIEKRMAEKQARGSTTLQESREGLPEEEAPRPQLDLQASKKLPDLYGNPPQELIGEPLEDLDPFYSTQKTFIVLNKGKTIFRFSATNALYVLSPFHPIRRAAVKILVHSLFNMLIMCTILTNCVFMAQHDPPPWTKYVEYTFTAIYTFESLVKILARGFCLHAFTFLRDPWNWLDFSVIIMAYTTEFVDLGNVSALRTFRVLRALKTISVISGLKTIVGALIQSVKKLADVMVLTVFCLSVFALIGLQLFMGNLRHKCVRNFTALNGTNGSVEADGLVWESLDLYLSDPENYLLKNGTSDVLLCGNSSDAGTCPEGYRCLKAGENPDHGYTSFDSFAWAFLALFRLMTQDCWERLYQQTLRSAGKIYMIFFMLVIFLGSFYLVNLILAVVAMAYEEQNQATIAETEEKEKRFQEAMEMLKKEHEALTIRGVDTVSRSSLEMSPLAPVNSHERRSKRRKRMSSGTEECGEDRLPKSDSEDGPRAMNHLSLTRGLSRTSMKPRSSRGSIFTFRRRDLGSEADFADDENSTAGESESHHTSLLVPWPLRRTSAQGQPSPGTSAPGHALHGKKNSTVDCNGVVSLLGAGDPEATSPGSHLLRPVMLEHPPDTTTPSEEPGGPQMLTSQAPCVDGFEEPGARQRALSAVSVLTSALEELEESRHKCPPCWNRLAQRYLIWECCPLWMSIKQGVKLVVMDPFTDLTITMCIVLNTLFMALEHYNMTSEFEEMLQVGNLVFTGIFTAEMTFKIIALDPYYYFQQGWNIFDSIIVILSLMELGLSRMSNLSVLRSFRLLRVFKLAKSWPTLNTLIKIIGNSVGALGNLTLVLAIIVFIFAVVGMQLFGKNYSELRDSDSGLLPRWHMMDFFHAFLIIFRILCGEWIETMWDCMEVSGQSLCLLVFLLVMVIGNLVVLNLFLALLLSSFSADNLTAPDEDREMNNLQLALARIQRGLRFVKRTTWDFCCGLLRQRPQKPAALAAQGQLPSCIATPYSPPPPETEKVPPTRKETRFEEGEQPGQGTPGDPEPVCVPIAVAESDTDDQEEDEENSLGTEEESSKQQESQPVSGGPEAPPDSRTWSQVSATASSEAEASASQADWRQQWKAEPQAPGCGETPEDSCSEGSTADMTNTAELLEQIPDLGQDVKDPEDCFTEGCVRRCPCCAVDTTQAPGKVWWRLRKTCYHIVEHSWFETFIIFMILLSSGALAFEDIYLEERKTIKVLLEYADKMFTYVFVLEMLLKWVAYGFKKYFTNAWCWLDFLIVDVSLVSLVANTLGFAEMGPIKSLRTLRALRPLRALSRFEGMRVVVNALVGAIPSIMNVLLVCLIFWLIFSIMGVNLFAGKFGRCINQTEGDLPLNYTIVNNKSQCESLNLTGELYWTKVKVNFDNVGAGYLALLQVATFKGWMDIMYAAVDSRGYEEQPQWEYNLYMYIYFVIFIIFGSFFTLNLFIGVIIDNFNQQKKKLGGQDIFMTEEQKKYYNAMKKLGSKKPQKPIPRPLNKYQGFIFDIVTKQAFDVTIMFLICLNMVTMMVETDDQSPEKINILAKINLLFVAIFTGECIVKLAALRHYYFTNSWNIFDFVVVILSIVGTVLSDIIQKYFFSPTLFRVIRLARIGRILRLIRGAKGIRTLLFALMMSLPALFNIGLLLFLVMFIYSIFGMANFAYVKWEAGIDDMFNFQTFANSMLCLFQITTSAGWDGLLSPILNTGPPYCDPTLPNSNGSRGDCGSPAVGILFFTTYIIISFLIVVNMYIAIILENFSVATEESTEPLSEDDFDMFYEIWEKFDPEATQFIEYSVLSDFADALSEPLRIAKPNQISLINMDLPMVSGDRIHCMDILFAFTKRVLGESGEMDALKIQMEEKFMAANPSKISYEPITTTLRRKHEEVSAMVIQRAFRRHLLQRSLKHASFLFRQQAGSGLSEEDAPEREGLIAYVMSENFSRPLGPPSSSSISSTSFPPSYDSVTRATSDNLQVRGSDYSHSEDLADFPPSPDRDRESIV

Take `CC[C@H](C)[C@@H]1NC(=O)[C@@H]2CSSC[C@@H]3NC(=O)[C@H](C(C)C)NC(=O)[C@H](CC(C)C)NC(=O)[C@H](CC(N)=O)NC(=O)[C@@H]4CCCN4C(=O)[C@H](CCCNC(=N)N)NC(=O)[C@H](CSSC[C@H](NC(=O)[C@@H](N)CC(=O)O)C(=O)N[C@@H](CC(C)C)C(=O)NCC(=O)N[C@@H](CO)C(=O)N[C@@H](Cc4ccccc4)C(=O)N[C@@H](CCCNC(=N)N)C(=O)N[C@@H](CCCCN)C(=O)N2)NC(=O)[C@H](CSSC[C@@H](C(=O)N[C@@H](CCCCN)C(=O)N[C@@H](Cc2ccc(O)cc2)C(=O)N[C@H](C(=O)N[C@@H](Cc2ccccc2)C(N)=O)C(C)C)NC(=O)[C@H](Cc2c[nH]c4ccccc24)NC(=O)[C@H](CCCCN)NC(=O)[C@H](Cc2c[nH]cn2)NC(=O)[C@H]([C@@H](C)O)NC(=O)[C@H](CCCNC(=N)N)NC(=O)[C@H](CO)NC3=O)NC(=O)[C@H](CCCCN)NC(=O)[C@H](CC(=O)O)NC(=O)[C@H](CC(N)=O)NC(=O)[C@H](CC(=O)O)NC(=O)[C@@H]2CCCN2C1=O` [[Ser5;Phe6]GpTx-1(1-34)] (H-DCLGSFRKCIPDNDKCCRPNLVCSRTHKWCKYVF-NH2; disulfide 2-17, 9-23, 16-30): the IC50 was 0.024 µM against hNav1.7 and above 10 µM on hNav1.5.
Taken in the same sequence, the figures for `CC[C@H](C)[C@@H]1NC(=O)[C@@H]2CSSC[C@@H]3NC(=O)[C@H](C(C)C)NC(=O)[C@H](CC(C)C)NC(=O)[C@H](CC(N)=O)NC(=O)[C@@H]4CCCN4C(=O)[C@H](CCCNC(=N)N)NC(=O)[C@H](CSSC[C@H](NC(=O)[C@@H](N)CC(=O)O)C(=O)N[C@@H](CC(C)C)C(=O)NCC(=O)N[C@@H](Cc4ccccc4)C(=O)N[C@@H](CCSC)C(=O)N[C@@H](CCCNC(=N)N)C(=O)N[C@@H](CCCCN)C(=O)N2)NC(=O)[C@H](CSSC[C@@H](C(=O)N[C@@H](CCCCN)C(=O)N[C@@H](Cc2ccc(O)cc2)C(=O)N[C@H](C(=O)N[C@@H](Cc2ccccc2)C(N)=O)C(C)C)NC(=O)[C@H](Cc2c[nH]c4ccccc24)NC(=O)[C@H](CCCCN)NC(=O)[C@H](Cc2c[nH]cn2)NC(=O)[C@H]([C@@H](C)O)NC(=O)[C@H](CCCNC(N)=O)NC(=O)[C@H](CO)NC3=O)NC(=O)[C@H](CCCCN)NC(=O)[C@H](CC(=O)O)NC(=O)[C@H](CC(N)=O)NC(=O)[C@H](CC(=O)O)NC(=O)[C@@H]2CCCN2C1=O` [[Cit25]GpTx-1(1-34)] were 0.004 µM and above 10 µM.
Taken in the same sequence, the figures for `C#CCCC(=O)N[C@@H](CC(=O)O)C(=O)N[C@H]1CSSC[C@@H]2NC(=O)[C@@H]3CSSC[C@@H](C(=O)N[C@@H](CCCCN)C(=O)N[C@@H](Cc4ccc(O)cc4)C(=O)N[C@H](C(=O)N[C@@H](Cc4ccccc4)C(N)=O)C(C)C)NC(=O)[C@H](Cc4c[nH]c5ccccc45)NC(=O)[C@H](CCCNC(=N)N)NC(=O)[C@H](Cc4c[nH]cn4)NC(=O)[C@H]([C@@H](C)O)NC(=O)[C@H](CCCNC(=N)N)NC(=O)[C@H](CO)NC(=O)[C@H](CSSC[C@H](NC(=O)[C@H](CCCCN)NC(=O)[C@H](CCCNC(=N)N)NC(=O)[C@H](CC(C)C)NC(=O)[C@H](CC)NC(=O)CNC(=O)[C@H](CC(C)C)NC1=O)C(=O)N[C@@H]([C@@H](C)CC)C(=O)N1CCC[C@H]1C(=O)N[C@@H](CC(=O)O)C(=O)N[C@@H](CC)C(=O)N[C@@H](CC(=O)O)C(=O)N[C@@H](CCCCN)C(=O)N3)NC(=O)[C@H](C(C)C)NC(=O)[C@H](CC(C)C)NC(=O)[C@H](CC(N)=O)NC(=O)[C@@H]1CCCN1C(=O)[C@H](CCCNC(=N)N)NC2=O` [4-Pen-[2-Abu5,13;Leu6;Arg28]GpTx-1(1-34)] (Pent4ynoyl-DCLG[Abu]LRKCIPD[Abu]DKCCRPNLVCSRTHRWCKYVF-NH2; disulfide 2-17, 9-23, 16-30) were 0.003 µM and above 10 µM.
The matching figures for `CC[C@H](C)[C@@H]1NC(=O)[C@@H]2CSSC[C@@H]3NC(=O)[C@H](C(C)C)NC(=O)[C@H](CC(C)C)NC(=O)[C@H](CC(N)=O)NC(=O)[C@@H]4CCCN4C(=O)[C@H](CCCNC(=N)N)NC(=O)[C@H](CSSC[C@H](NC(=O)[C@@H](N)CC(=O)O)C(=O)N[C@@H](CC(C)C)C(=O)NCC(=O)N[C@@H](C)C(=O)N[C@@H](Cc4ccccc4)C(=O)N[C@@H](CCCNC(=N)N)C(=O)N[C@@H](CCCCN)C(=O)N2)NC(=O)[C@H](CSSC[C@@H](C(=O)N[C@@H](CCCCN)C(=O)N[C@@H](Cc2ccc(O)cc2)C(=O)N[C@H](C(=O)N[C@@H](Cc2ccccc2)C(N)=O)C(C)C)NC(=O)[C@H](Cc2c[nH]c4ccccc24)NC(=O)[C@H](CCCNC(=N)N)NC(=O)[C@H](Cc2c[nH]cn2)NC(=O)[C@H](CC(C)C)NC(=O)[C@H](CCCNC(=N)N)NC(=O)[C@H](CO)NC3=O)NC(=O)[C@H](CCCCN)NC(=O)[C@H](CC(=O)O)NC(=O)[C@H](CCCCNC(=O)CN2CCN(CC(=O)O)CCN(CC(=O)O)CCN(CC(=O)O)CC2)NC(=O)[C@H](CC(=O)O)NC(=O)[C@@H]2CCCN2C1=O` (H-DCLGAFRKCIPDK(DOTA)DKCCRPNLVCSRLHRWCKYVF-NH2; disulfide 2-17, 9-23, 16-30): 0.0275 µM and above 10 µM.
`CC[C@H](C)[C@@H]1NC(=O)[C@@H]2CSSC[C@@H]3NC(=O)[C@H](C(C)C)NC(=O)[C@H](CC(C)C)NC(=O)[C@H](CC(N)=O)NC(=O)[C@H](CCCCN)NC(=O)[C@H](CCCNC(=N)N)NC(=O)[C@H](CSSC[C@H](NC(=O)[C@@H](N)CC(=O)O)C(=O)N[C@@H](CC(C)C)C(=O)NCC(=O)N[C@@H](Cc4ccccc4)C(=O)N[C@@H](CCSC)C(=O)N[C@@H](CCCNC(=N)N)C(=O)N[C@@H](CCCCN)C(=O)N2)NC(=O)[C@H](CSSC[C@@H](C(=O)N[C@@H](CCCCN)C(=O)N[C@@H](Cc2ccc(O)cc2)C(=O)N[C@H](C(=O)N[C@@H](Cc2ccccc2)C(N)=O)C(C)C)NC(=O)[C@H](Cc2c[nH]c4ccccc24)NC(=O)[C@H](CCCCN)NC(=O)[C@H](Cc2cnc[nH]2)NC(=O)[C@H]([C@@H](C)O)NC(=O)[C@H](CCCNC(=N)N)NC(=O)[C@H](CO)NC3=O)NC(=O)[C@H](CCCCN)NC(=O)[C@H](CC(=O)O)NC(=O)[C@H](CC(N)=O)NC(=O)[C@H](CC(=O)O)NC(=O)[C@@H]2CCCN2C1=O` [[Lys19]GpTx-1(1-34)] (H-DCLGFMRKCIPDNDKCCRKNLVCSRTHKWCKYVF-NH2; disulfide 2-17, 9-23, 16-30): the IC50 against hNav1.7 was 0.003 µM; at hNav1.5 it was 9.1 µM.
Taken in the same sequence, the figures for `CC[C@H](C)[C@@H]1NC(=O)[C@@H]2CSSC[C@@H]3NC(=O)[C@H](C(C)C)NC(=O)[C@H](CC(C)C)NC(=O)[C@H](CC(N)=O)NC(=O)[C@@H]4CCCN4C(=O)[C@H](CCCNC(=N)N)NC(=O)[C@H](CSSC[C@H](NC(=O)[C@@H](N)CC(=O)O)C(=O)N[C@@H](CC(C)C)C(=O)NCC(=O)N[C@@H](C(C)C)C(=O)N[C@@H](CCSC)C(=O)N[C@@H](CCCNC(=N)N)C(=O)N[C@@H](CCCCN)C(=O)N2)NC(=O)[C@H](CSSC[C@@H](C(=O)N[C@@H](CCCCN)C(=O)N[C@@H](Cc2ccc(O)cc2)C(=O)N[C@H](C(=O)N[C@@H](Cc2ccccc2)C(N)=O)C(C)C)NC(=O)[C@H](Cc2c[nH]c4ccccc24)NC(=O)[C@H](CCCCN)NC(=O)[C@H](Cc2c[nH]cn2)NC(=O)[C@H]([C@@H](C)O)NC(=O)[C@H](CCCNC(=N)N)NC(=O)[C@H](CO)NC3=O)NC(=O)[C@H](CCCCN)NC(=O)[C@H](CC(=O)O)NC(=O)[C@H](CC(N)=O)NC(=O)[C@H](CCC(=O)O)NC(=O)[C@@H]2CCCN2C1=O` [[Val5;Glu12]GpTx-1(1-34)] (H-DCLGVMRKCIPENDKCCRPNLVCSRTHKWCKYVF-NH2; disulfide 2-17, 9-23, 16-30) were 0.074 µM and above 10 µM.
Taken in the same sequence, the figures for `C#CC[C@@H]1NC(=O)[C@H](CC(=O)O)NC(=O)[C@@H]2CCCN2C(=O)[C@H](CCC(=O)O)NC(=O)[C@@H]2CSSC[C@@H]3NC(=O)[C@H](C(C)C)NC(=O)[C@H](CC(C)C)NC(=O)[C@H](CC(N)=O)NC(=O)[C@@H]4CCCN4C(=O)[C@H](CCCNC(=N)N)NC(=O)[C@H](CSSC[C@H](NC(=O)[C@@H](N)CC(=O)O)C(=O)N[C@@H](CC(C)C)C(=O)NCC(=O)N[C@@H](C)C(=O)N[C@@H](Cc4ccccc4)C(=O)N[C@@H](CCCNC(=N)N)C(=O)N[C@@H](CCCCN)C(=O)N2)NC(=O)[C@H](CSSC[C@@H](C(=O)N[C@@H](CCCCN)C(=O)N[C@@H](Cc2ccc(O)cc2)C(=O)N[C@H](C(=O)N[C@@H](Cc2ccccc2)C(N)=O)C(C)C)NC(=O)[C@H](Cc2c[nH]c4ccccc24)NC(=O)[C@H](CCCNC(=N)N)NC(=O)[C@H](Cc2c[nH]cn2)NC(=O)[C@H](CC(C)C)NC(=O)[C@H](CCCNC(=N)N)NC(=O)[C@H](CO)NC3=O)NC(=O)[C@H](CCCCN)NC(=O)[C@H](CC(=O)O)NC1=O` (H-DCLGAFRKCEPD[Pra]DKCCRPNLVCSRLHRWCKYVF-NH2; disulfide 2-17, 9-23, 16-30) were 0.012 µM and 15.3 µM.
Taken in the same sequence, the figures for `CC[C@H](C)[C@@H]1NC(=O)[C@@H]2CSSC[C@@H]3NC(=O)[C@H](C(C)C)NC(=O)[C@H](CC(C)C)NC(=O)[C@H](CC(N)=O)NC(=O)[C@@H]4CCCN4C(=O)[C@H](CCCNC(=N)N)NC(=O)[C@H](CSSC[C@H](NC(=O)[C@@H](N)CC(=O)O)C(=O)N[C@@H](CC(C)C)C(=O)NCC(=O)N[C@@H](Cc4ccccc4)C(=O)N[C@@H](CCSC)C(=O)N[C@@H](CCCNC(=N)N)C(=O)N[C@@H](CCCCN)C(=O)N2)NC(=O)[C@H](CSSC[C@@H](C(=O)N[C@@H](CCCCN)C(=O)N[C@@H](Cc2ccc(O)cc2)C(=O)N[C@H](C(=O)N[C@@H](Cc2ccccc2)C(N)=O)C(C)C)NC(=O)[C@H](Cc2c[nH]c4ccccc24)NC(=O)[C@H](CCCCN)NC(=O)[C@H](Cc2c[nH]cn2)NC(=O)[C@H](Cc2ccc(C(=O)O)cc2)NC(=O)[C@H](CCCNC(=N)N)NC(=O)[C@H](CO)NC3=O)NC(=O)[C@H](CCCCN)NC(=O)[C@H](CC(=O)O)NC(=O)[C@H](CC(N)=O)NC(=O)[C@H](CC(=O)O)NC(=O)[C@@H]2CCCN2C1=O` [[4CO2-F26]GpTx-1(1-34)] (H-DCLGFMRKCIPDNDKCCRPNLVCSR[Phe(4-COOH)]HKWCKYVF-NH2; disulfide 2-17, 9-23, 16-30) were 0.065 µM and above 10 µM.
